# Patent US20060153931A1, “Prevention of flap necrosis in plastic surgery” (priority 2001, published 2006)
# Ends that are not written are not given here.
# Tests used:
# headache = format: in vivo; conditions: oral capsules each containing 100 mg aspirin and 200 mg of CX—NO
# Description: CX—NO of Example 14 of U.S. Pat. No. 6,403,759 is formulated in a gel at 50 mM and is admixed with aspirin and the combination used to fill capsules each containing 100 mg aspirin and 200 mg of CX—NO. […] Alternatively, the CX—NO is used as or included in a coating for aspirin tablets (100 mg aspirin in a tablet), and administration orally of the coated aspirin provides the same result.
# [1] = system: free tissue transfer of forearm tissues to the face; conditions: human, in vivo
# [2] = system: island skin flaps based upon the epigastic artery and vein; assay: Rat island skin flap model, ET-1 induced vasoconstriction, CX—NO (Background Example 2); format: in vivo, rats; conditions: 0.25 ml of 3.17 mM CX—NO in DMSO, 15 min after ET-1, FIG. 1
# [3] = system: skin flaps based on the epigastric artery and vein; assay: Rat epigastric skin flap model, ET-1 induced pedicle vasoconstriction (Background Example 1); format: in vivo, rats
# [4] = system: coronary artery bypass grafts; assay: Patient with coronary artery bypass, vasospasm of the grafts (Example II); format: in vivo, human
# pedicle flap = conditions: 30 minutes after lidocaine application, topical to pedicle; cited from earlier work
# [5] = topical 10^−5 M ET-1 on pedicle
# [6] = 30 min after application, 2% lidocaine or 10^−4M ENO, 15 min after ET-1, mean±SEM
# [7] = addition of 100 μM ethyl nitrite after lidocaine (2%)
compound,measurement,setting,value
O— and S-nitrosylated β-cyclodextrin,headache relief,headache,relieved headache
CC(N=O)(S(C)(=O)=O)S(C)(=O)=O [compound (1)],vasodilation and blood flow after vasospasm,[1],same result
nitrosylated polythiolated cyclodextrin [CX—NO],arterial diameter as a percentage of baseline,[2],increase
same,vein diameter as a percentage of baseline,[2],increase
same,blood flow in small vessels as a percentage of baseline flow,[2]; laser Doppler,increase
"ET-1: Endothelin-1, applied topically to induce pedicle vasoconstriction (CSCSSLMDKECVYFCHLDIIW; ends and bridges not checked; cysteine pairing not given here; UniProt P05305 53-73, looked up) [reference compound]",vasoconstriction of the epigastric artery,[3]; [5],69-76%
same,vasoconstriction of the epigastric vein,[3]; [5],43-72%
same,reduction of flap blood flow to % of baseline,"[3]; topical 10^−5 M ET-1 on pedicle, laser Doppler",35-45 % of baseline
"CCN(CC)CC(=O)Nc1c(C)cccc1C [lidocaine, reference compound]",blood flow in grafts,[4]; topical lidocaine (2%),temporary but marginal blood flow
same,"effect on vasoconstriction / blood flow, decreasing to % of baseline",pedicle flap,≤ 50 % of baseline
"CCON=O [ENO, ethyl nitrite]",overall effect on arterial dilation and blood flow (in words),[3]; 2% lidocaine vs 10^−4M ENO,longer lasting and greater effect
same,time after application from which restoration of arterial diameter is greater compared to lidocaine (p<0.05),[3]; 10^−4M ENO vs 2% lidocaine,10 min
same,time after application from which restoration of blood flow is greater compared to lidocaine (p<0.05),[3]; 10^−4M ENO vs 2% lidocaine,13 min
same,arterial diameter,"[3]; 1 min after application (lidocaine: within 1 min), 2% lidocaine or 10^−4M ENO, 15 min after ET-1, mean±SEM",83±5 % of baseline
same,flap blood flow,"[3]; 2 min after application, 2% lidocaine or 10^−4M ENO, 15 min after ET-1, laser Doppler, mean±SEM",62±6 % of baseline
same,flap blood flow,"[3]; 30 min after application, 2% lidocaine or 10^−4M ENO, 15 min after ET-1, laser Doppler, mean±SEM",86±10 % of baseline
same,arterial diameter,[3]; [6],98±5 % of baseline
same,vein diameter,[3]; [6],75±5 % of baseline
same,vasodilation and blood flow after vasospasm,[1],vasodilation and flow is restored
same,EKG (ischemia),[4]; [7],normalized EKG
same,blood flow in grafts,[4]; [7],restored flow
